One data set has as its target T1, human PDE4B1 (Homo sapiens, UniProt Q07343).
T1 construct: host or cells: Sf9 cells
Kind of data set: cAMP HTRF assay to determine the activity of hPDE4B1. The settings on record: test substrate concentration of 1 μM, read-out: Inhibition of PDE4B, Inhibition in %. Format: biochemical. The protocol: cAMP HTRF® Assay to Determine the Activity of hPDE4B1
The inhibiting effect of the compounds on the enzyme activity of human PDE4B1 was measured by the quantification of 5′-adenosine monophosphate (5′-AMP), which is formed from 3′,5′-cyclic adenosine monophosphate (cAMP). Human recombinant enzyme, expressed in Sf9 cells, and the HTRF (homogeneous time-resolved fluorescence) detection method were used in the assay.
The test compound or water (control) was mixed with the human recombinant PDE4B1 enzyme (4.8 U) in a buffer consisting of 44.4 mM tris-HCl, 5.28 mM MgCl2, 2.64 mM DTT and 0.044% Tween 20 (pH 7.8). After adding the cAMP enzyme substrate (final concentration 40 nM), the mixture was incubated for 30 minutes at room temperature. Then a fluorescence acceptor (Dye2 marked with cAMP), a fluorescence donor (anti-cAMP antibody marked with a europium cryptate) and the non-specific phosphodiesterase inhibitor IBMX (3-isobutyl-1-methylxanthine; final concentration 1 mM) were added. After 60 minutes the fluorescence transfer, which correlates with the amount of remaining cAMP, was measured with a microplate reader (Rubystar, BMG) at λex=337 nm, λem=620 nm and λem=665 nm. The enzyme activity was calculated from the quotient formed from the measured signal at 665 nm and that at 620 nm. The result was expressed as the percentage inhibition of enzyme activity of the control (without PDE4 inhibitor). The enzyme was omitted for measurement of the basal control. IC50 values (IC50=concentration causing a half-maximal inhibition of control specific activity) were derived from dose response measurements with eight different concentrations (n=2; N=1-3).
Literature: N. Saldou et al., Comparison of recombinant human PDE4 isoforms: interaction with substrate and inhibitors, Cell. Signal. Vol. 10, No. 6, 427-440, 1998
T1 sequence (Q07343 whole entry): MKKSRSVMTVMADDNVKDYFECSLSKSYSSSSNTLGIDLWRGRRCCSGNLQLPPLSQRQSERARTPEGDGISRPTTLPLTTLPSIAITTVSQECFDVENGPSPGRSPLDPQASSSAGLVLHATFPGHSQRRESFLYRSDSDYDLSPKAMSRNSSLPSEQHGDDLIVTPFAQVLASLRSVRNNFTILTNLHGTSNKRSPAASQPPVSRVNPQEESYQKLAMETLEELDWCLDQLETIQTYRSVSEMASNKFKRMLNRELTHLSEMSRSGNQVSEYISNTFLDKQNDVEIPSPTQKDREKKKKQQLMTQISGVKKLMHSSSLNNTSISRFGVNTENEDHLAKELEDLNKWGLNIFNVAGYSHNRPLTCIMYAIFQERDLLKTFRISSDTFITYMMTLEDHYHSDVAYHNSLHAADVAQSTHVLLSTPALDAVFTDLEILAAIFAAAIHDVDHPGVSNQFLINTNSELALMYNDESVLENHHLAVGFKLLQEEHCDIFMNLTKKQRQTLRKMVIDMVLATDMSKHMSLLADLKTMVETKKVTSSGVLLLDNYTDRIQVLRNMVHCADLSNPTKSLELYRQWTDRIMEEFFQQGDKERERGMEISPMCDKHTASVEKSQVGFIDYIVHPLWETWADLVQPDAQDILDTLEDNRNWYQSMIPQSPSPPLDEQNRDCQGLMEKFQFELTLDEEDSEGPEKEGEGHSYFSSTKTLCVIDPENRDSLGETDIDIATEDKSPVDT
Turning to `O=C(c1ccc2c(C3CC3)nn(-c3ncc(-c4ccccc4)cn3)c2c1)N1CCOCC1` [Compound No. 14, (3-Cyclopropyl-1-(5-phenylpyrimidin-2-yl)-1H-indazol-6-yl)(morpholino)-methanone], the inhibition at 1 µM amounted to 92%.

With `O=C(c1cc2c(cn1)c(C1CC1)nn2-c1ncc(-c2ccccc2F)cn1)N1CCCCC1` [compound 42, (3-Cyclopropyl-1-(5-(2-fluorophenyl)pyrimidin-2-yl)-1H-pyrazolo[4,3-c]pyridin-6-yl)(piperidin-1-yl)methanone], the inhibition at 1 µM is 39%.

Take `COCCCNC(=O)c1cc2c(cn1)c(C1CC1)nn2-c1ncc(-c2ccccc2F)cn1` [compound 43, 3-Cyclopropyl-1-(5-(2-fluorophenyl)pyrimidin-2-yl)-N-(3-methoxypropyl)-1H-pyrazolo[4,3-c]pyridine-6-carboxamide]: the inhibition at 1 µM turned out to be 44%.

Regarding `CC1COCCN1C(=O)c1cc2c(cn1)c(C1CC1)nn2-c1ncc(-c2ccccc2F)cn1` (centres unmarked) [compound 44, (3-Cyclopropyl-1-(5-(2-fluorophenyl)pyrimidin-2-yl)-1H-pyrazolo[4,3-c]pyridin-6-yl)(3-methylmorpholino)methanone], the inhibition at 1 µM turned out to be 61%.

Regarding `O=C(NC1CCOCC1)c1cc2c(cn1)c(C1CC1)nn2-c1ncc(-c2ccccc2F)cn1` [compound 45, 3-Cyclopropyl-1-(5-(2-fluorophenyl)pyrimidin-2-yl)-N-(tetrahydro-2H-pyran-4-yl)-1H-pyrazolo[4,3-c]pyridine-6-carboxamide], the inhibition at 1 µM came out at 27%.

`O=C(NCC1(O)CCC1)c1cc2c(cn1)c(C1CC1)nn2-c1ncc(-c2ccccc2F)cn1` [compound 46, 3-Cyclopropyl-1-(5-(2-fluorophenyl)pyrimidin-2-yl)-N-((1-hydroxycyclobutyl)methyl)-1H-pyrazolo[4,3-c]pyridine-6-carboxamide]: the inhibition at 1 µM came out at 31%.

Consider `O=C(NCCn1cncn1)c1cc2c(cn1)c(C1CC1)nn2-c1ncc(-c2ccccc2F)cn1` [compound 47, N-(2-(1H-1,2,4-Triazol-1-yl)ethyl)-3-cyclopropyl-1-(5-(2-fluorophenyl)pyrimidin-2-yl)-1H-pyrazolo[4,3-c]pyridine-6-carboxamide], for which the inhibition at 1 µM was 67%.

As to `COC[C@@H]1CCCN1C(=O)c1cc2c(cn1)c(C1CC1)nn2-c1ncc(-c2ccccc2F)cn1` [compound 48, (S)-(3-Cyclopropyl-1-(5-(2-fluorophenyl)pyrimidin-2-yl)-1H-pyrazolo[4,3-c]pyridin-6-yl)(2-(methoxymethyl)pyrrolidin-1-yl)methanone], the inhibition at 1 µM is 43%.

As for `CC1COCC(C)N1C(=O)c1cc2c(cn1)c(C1CC1)nn2-c1ncc(-c2ccccc2F)cn1` (centres unmarked) [compound 49, (3-Cyclopropyl-1-(5-(2-fluorophenyl)pyrimidin-2-yl)-1H-pyrazolo[4,3-c]pyridin-6-yl)(3,5-dimethylmorpholino)methanone], the inhibition at 1 µM turned out to be 54%.

For another data set, the target named is T1, human PDE4B1. Kind of data set: TR-FRET assay using the LANCE Ultra cAMP kit to determine the activity of hPDE4B1. Format: biochemical. The settings on record: test substrate concentration of 10 μM, read-out: Inhibition of PDE4B, Inhibition in %. The text has this: TR-FRET Assay Using the LANCE® Ultra cAMP Kit to Determine the Activity of hPDE4B1
The effects of the compounds on the activity of the human PDE4B1 was quantified by measuring the production of 5′AMP from cAMP using a human recombinant enzyme expressed in Sf9 cells and the LANCE® Ultra cAMP kit, a TR-FRET detection method from PerkinElmer. The human PDE4B1 enzyme was purchased from SignalChem Lifesciences (Catalog #P92-31BG, Lot #H296-2).
The test compound, reference compound or water (control) was mixed with the enzyme (0.96 U) in a reaction buffer containing 50 mM Tris-HCl, 50 mM MgCl2 and 5 mM DTT (pH 8.5). Thereafter, the reaction was initiated by addition of 500 nM cAMP (substrate) and the mixture was incubated for 30 minutes at room temperature. For control basal measurements, the enzyme was omitted from the reaction mixture. After 30 minutes, the reaction was stopped and diluted by a factor of 100 with the reaction buffer supplemented with 500 μM IBMX. The fluorescence donor (europium chelate-labeled cAMP) and the fluorescence acceptor (anti-cAMP antibody labeled with the ULight™ dye) were then added together with 500 μM IBMX to a 10 μl aliquot. After 60 minutes, the fluorescence transfer corresponding to the amount of residual cAMP was measured at λex=337 nm, λem=620 nm and λem=665 nm using a microplate reader (PHERAstar, BMG). The enzyme activity was determined by dividing the signal measured at 665 nm by that measured at 620 nm (ratio) multiplied by 10000. The results were expressed as percent inhibition of the control enzyme activity. IC50 values (IC50=concentration causing a half-maximal inhibition of control specific activity) were derived from dose response measurements with ten different concentrations (n=3; N=1-3).
In the case of `Cc1ccc(F)c(-c2cnc(-n3nc([S+](C)[O-])c4ccc(C(=O)N5CCOCC5)cc43)nc2)c1` (single isomer, unassigned) [Compound No. 65, (1-(5-(2-Fluoro-5-methylphenyl)pyrimidin-2-yl)-3-(methylsulfinyl)-1H-indazol-6-yl)(morpholino)methanone], the inhibition at 10 µM is 100%.

For `Cc1ccc(F)c(-c2cnc(-n3nc([S+](C)[O-])c4ccc(C(=O)N5CCOCC5)cc43)nc2)c1` (centres unmarked) [Compound No. 32, (1-(5-(2-Fluoro-5-methylphenyl)pyrimidin-2-yl)-3-(methylsulfinyl)-1H-indazol-6-yl)(morpholino)methanone], the inhibition at 10 µM amounted to 96%.

Turning to `Cc1ccc(F)c(-c2cnc(-n3nc(S(C)(=O)=O)c4ccc(C(=O)N5CCOCC5)cc43)nc2)c1` [Compound No. 33, (1-(5-(2-Fluoro-5-methylphenyl)pyrimidin-2-yl)-3-(methylsulfonyl)-1H-indazol-6-yl)(morpholino)methanone], the inhibition at 10 µM was found to be 102%.

Turning to `Cc1ccc(F)c(-c2cnc(-n3nc(C(C)O)c4ccc(C(=O)N5CCOCC5)cc43)nc2)c1` (centres unmarked) [Compound No. 34, (1-(5-(2-Fluoro-5-methylphenyl)pyrimidin-2-yl)-3-(1-hydroxyethyl)-1H-indazol-6-yl)(morpholino)methanone], the inhibition at 10 µM was 107%.

Consider `Cc1ccc(F)c(-c2cnc(-n3nc(C(C)O)c4ccc(C(=O)N(C)CCO)cc43)nc2)c1` (centres unmarked) [Compound No. 66, 1-(5-(2-Fluoro-5-methylphenyl)pyrimidin-2-yl)-3-(1-hydroxyethyl)-N-(2-hydroxyethyl)-N-methyl-1H-indazole-6-carboxamide], for which the inhibition at 10 µM is 105%.

Turning to `Cc1ccc(F)c(-c2cnc(-n3nc(C(C)O)c4ccc(C(=O)N(C)CC(N)=O)cc43)nc2)c1` (centres unmarked) [Compound No. 67, N-(2-Amino-2-oxoethyl)-1-(5-(2-fluoro-5-methylphenyl)pyrimidin-2-yl)-3-(1-hydroxyethyl)-N-methyl-1H-indazole-6-carboxamide], the inhibition at 10 µM came out at 90%.

On to `CCc1ccc(F)c(-c2cnc(-n3nc(C(C)O)c4ccc(C(=O)N(C)CC(N)=O)cc43)nc2)c1` (centres unmarked) [Compound No. 68, N-(2-Amino-2-oxoethyl)-1-(5-(5-ethyl-2-fluorophenyl)pyrimidin-2-yl)-3-(1-hydroxyethyl)-N-methyl-1H-indazole-6-carboxamide], for which the inhibition at 10 µM was found to be 106%.

`CCc1ccc(F)c(-c2cnc(-n3nc(C(C)O)c4ccc(C(=O)N5CCOCC5)cc43)nc2)c1` (centres unmarked) [Compound No. 69, (1-(5-(5-Ethyl-2-fluorophenyl)pyrimidin-2-yl)-3-(1-hydroxyethyl)-1H-indazol-6-yl)(morpholino)methanone]: the inhibition at 10 µM turned out to be 77%.

Regarding `Cc1ccnc(-c2cnc(-n3nc(C(C)O)c4ccc(C(=O)N5CCOCC5)cc43)nc2)c1` (centres unmarked) [Compound No. 70], the inhibition at 10 µM was found to be 105%.

Turning to `COc1ccnc(-c2cnc(-n3nc(C(C)O)c4ccc(C(=O)N5CCOCC5)cc43)nc2)c1` (centres unmarked) [Compound No. 71, (3-(1-Hydroxyethyl)-1-(5-(4-methoxypyridin-2-yl)pyrimidin-2-yl)-1H-indazol-6-yl)(morpholino)methanone], the inhibition at 10 µM is 108%.

Take `CC(O)c1nn(-c2ncc(-c3cc(C4CC4)ccn3)cn2)c2cc(C(=O)N3CCOCC3)ccc12` (centres unmarked) [Compound No. 73, (1-(5-(4-Cyclopropylpyridin-2-yl)pyrimidin-2-yl)-3-(1-hydroxyethyl)-1H-indazol-6-yl)(morpholino)methanone]: the inhibition at 10 µM is 105%.

In the case of `CCOc1ccc(F)c(-c2cnc(-n3nc(C(C)O)c4ccc(C(=O)N5CCOCC5)cc43)nc2)c1` (centres unmarked) [Compound No. 74, (1-(5-(5-Ethoxy-2-fluorophenyl)pyrimidin-2-yl)-3-(1-hydroxyethyl)-1H-indazol-6-yl)(morpholino)methanone], the inhibition at 10 µM was 102%.

Consider `CC(O)c1nn(-c2ncc(-c3cccc(C4CC4)c3)cn2)c2cc(C(=O)N3CCOCC3)ccc12` (centres unmarked) [Compound No. 76, (1-(5-(3-Cyclopropylphenyl)pyrimidin-2-yl)-3-(1-hydroxyethyl)-1H-indazol-6-yl)(morpholino)methanone], for which the inhibition at 10 µM was 102%.

Tested on in another data set: not given
Test: not given
Conditions: not given
With `O=C(c1ccc2c(C3CC3)nn(-c3ncc(-c4ccccc4)cn3)c2c1)N1CCOCC1` [Compound No. 14, (3-Cyclopropyl-1-(5-phenylpyrimidin-2-yl)-1H-indazol-6-yl)(morpholino)-methanone], the melting point fell in the range of 218 to 222 °C.

The values above are taken from patent US9546158B2, “2,5-substituted pyrimidines” (Grünenthal GmbH, priority 2014, dated 2017).
